The kinase profiling compilation of Christmann-Franck et al. (2016)

Assays:
Test in all cases: radiometric filter-binding kinase assay, Kinase HotSpot
Conditions in all cases: compound 0.5 µM; ATP 10 µM
[1] = biological target: AKT2 (human) (UniProt P31751)
[2] = biological target: STK25 (human) (UniProt O00506)
[3] = biological target: FES (human) (UniProt P07332)
[4] = biological target: PRKCA (human) (UniProt P17252)
[5] = biological target: PIM3 (human) (UniProt Q86V86)
[6] = biological target: CDK9 CCNT1 (human) (UniProt P50750+O60563)
[7] = biological target: MAPK13 (human) (UniProt O15264)
[8] = biological target: CDK6 CCND1 (human) (UniProt Q00534+P24385)
[9] = biological target: TAOK2 (human) (UniProt Q9UL54)
[10] = biological target: STK4 (human) (UniProt Q13043)
[11] = biological target: PRKD3 (human) (UniProt O94806)
[12] = biological target: SIK2 (human) (UniProt Q9H0K1)
[13] = biological target: LTK (human) (UniProt P29376)
[14] = biological target: CDK5 CDK5R1 p35 (human) (UniProt Q00535+Q15078)
[15] = biological target: FGFR1 (human) (UniProt P11362)
[16] = biological target: TNK2 (human) (UniProt Q07912)
[17] = biological target: IGF1R (human) (UniProt P08069)
[18] = biological target: MAP2K1 (human) (UniProt Q02750)
[19] = system: FLT4 (human), P35916 [Q890H]
[20] = biological target: PKN2 (human) (UniProt Q16513)
[21] = biological target: WEE1 (human) (UniProt P30291)
[22] = biological target: GSK3A (human) (UniProt P49840)
[23] = biological target: ALK (human) (UniProt Q9UM73)
[24] = biological target: NEK3 (human) (UniProt P51956)
[25] = biological target: RPS6KA3 KD1 KD2 (human) (UniProt P51812)
[26] = biological target: GSG2 (human) (UniProt Q8TF76)
[27] = biological target: ULK2 (human) (UniProt Q8IYT8)
[28] = biological target: MAP2K2 (human) (UniProt P36507)
[29] = biological target: GRK6 (human) (UniProt P43250)
[30] = biological target: MAP3K11 (human) (UniProt Q16584)
[31] = biological target: MST1R (human) (UniProt Q04912)
[32] = biological target: NEK6 (human) (UniProt Q9HC98)
[33] = biological target: STK17A (human) (UniProt Q9UEE5)
[34] = biological target: STK16 (human) (UniProt O75716)
[35] = biological target: CSNK1G1 (human) (UniProt Q9HCP0)
[36] = biological target: PIM2 (human) (UniProt Q9P1W9)
[37] = biological target: TSSK1B (human) (UniProt Q9BXA7)
[38] = biological target: BRSK1 (human) (UniProt Q8TDC3)
[39] = biological target: STK33 (human) (UniProt Q9BYT3)
[40] = biological target: RPS6KA5 KD2 (human) (UniProt O75582)
[41] = biological target: NTRK2 (human) (UniProt Q16620)
[42] = biological target: VRK1 (human) (UniProt Q99986)
Sequence of VRK1 (human) (Q99986 whole entry, looked up): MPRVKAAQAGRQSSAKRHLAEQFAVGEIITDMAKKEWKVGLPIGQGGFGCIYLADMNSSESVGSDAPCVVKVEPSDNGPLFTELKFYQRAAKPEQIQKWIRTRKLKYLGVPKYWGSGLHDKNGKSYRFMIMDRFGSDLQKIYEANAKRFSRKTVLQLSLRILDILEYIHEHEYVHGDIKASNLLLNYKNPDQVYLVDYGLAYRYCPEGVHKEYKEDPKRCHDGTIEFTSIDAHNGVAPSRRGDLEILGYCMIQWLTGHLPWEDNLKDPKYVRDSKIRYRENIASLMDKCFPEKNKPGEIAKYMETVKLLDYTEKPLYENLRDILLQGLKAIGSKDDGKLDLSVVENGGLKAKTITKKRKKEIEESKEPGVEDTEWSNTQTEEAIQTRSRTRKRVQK

Sequence of MAP2K1 (human) (Q02750 whole entry, looked up): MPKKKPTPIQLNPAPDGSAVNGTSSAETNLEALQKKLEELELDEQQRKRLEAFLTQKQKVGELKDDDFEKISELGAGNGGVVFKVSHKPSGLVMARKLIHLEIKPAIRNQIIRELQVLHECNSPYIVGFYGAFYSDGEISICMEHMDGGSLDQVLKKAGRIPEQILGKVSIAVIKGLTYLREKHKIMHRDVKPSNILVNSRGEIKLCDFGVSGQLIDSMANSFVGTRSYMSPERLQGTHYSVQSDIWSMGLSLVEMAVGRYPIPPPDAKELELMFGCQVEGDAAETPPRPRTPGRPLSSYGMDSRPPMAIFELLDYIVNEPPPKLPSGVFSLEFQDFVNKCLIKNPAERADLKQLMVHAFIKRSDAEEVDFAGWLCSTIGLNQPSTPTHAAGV
Sequence of CDK9 CCNT1 (human) (O60563 whole entry, looked up): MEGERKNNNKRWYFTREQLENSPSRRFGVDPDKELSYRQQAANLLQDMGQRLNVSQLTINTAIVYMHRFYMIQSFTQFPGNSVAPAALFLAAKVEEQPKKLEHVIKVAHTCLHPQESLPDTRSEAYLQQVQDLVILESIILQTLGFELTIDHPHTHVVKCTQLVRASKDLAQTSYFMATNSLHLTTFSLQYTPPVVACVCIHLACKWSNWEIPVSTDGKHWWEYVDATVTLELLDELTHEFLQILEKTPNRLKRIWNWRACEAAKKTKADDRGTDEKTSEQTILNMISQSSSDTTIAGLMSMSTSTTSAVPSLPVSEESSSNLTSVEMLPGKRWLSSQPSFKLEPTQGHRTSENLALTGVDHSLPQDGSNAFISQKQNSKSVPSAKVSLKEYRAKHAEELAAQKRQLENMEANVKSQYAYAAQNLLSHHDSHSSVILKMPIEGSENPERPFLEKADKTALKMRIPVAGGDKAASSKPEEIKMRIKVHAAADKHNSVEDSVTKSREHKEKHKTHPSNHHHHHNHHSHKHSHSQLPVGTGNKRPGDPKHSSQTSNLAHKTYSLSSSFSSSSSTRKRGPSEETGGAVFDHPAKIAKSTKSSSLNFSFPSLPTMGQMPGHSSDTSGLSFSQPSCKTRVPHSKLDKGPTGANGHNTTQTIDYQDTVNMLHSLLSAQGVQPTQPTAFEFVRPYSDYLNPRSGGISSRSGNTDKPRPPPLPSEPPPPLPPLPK
Sequence of CDK9 CCNT1 (human) (P50750 whole entry, looked up): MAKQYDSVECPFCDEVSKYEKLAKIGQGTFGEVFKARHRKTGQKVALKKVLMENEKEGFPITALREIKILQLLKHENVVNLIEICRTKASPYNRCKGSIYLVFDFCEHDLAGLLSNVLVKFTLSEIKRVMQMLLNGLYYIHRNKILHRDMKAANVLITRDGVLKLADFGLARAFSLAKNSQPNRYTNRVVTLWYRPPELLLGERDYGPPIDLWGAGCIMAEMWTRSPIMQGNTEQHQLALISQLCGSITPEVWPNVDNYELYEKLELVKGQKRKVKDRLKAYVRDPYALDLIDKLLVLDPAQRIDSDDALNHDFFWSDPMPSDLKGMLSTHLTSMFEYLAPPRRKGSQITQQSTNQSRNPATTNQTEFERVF
Sequence of MAPK13 (human) (O15264 whole entry, looked up): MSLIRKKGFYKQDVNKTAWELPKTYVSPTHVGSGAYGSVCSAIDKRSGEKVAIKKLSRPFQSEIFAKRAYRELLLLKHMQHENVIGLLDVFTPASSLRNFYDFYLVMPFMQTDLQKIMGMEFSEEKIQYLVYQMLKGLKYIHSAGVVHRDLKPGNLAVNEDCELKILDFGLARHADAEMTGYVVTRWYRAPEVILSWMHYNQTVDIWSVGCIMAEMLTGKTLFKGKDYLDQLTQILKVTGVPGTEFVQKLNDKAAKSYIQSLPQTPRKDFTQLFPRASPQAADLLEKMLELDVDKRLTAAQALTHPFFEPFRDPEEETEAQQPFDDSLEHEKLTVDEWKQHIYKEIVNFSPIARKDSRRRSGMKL
Sequence of MST1R (human) (Q04912 whole entry, looked up): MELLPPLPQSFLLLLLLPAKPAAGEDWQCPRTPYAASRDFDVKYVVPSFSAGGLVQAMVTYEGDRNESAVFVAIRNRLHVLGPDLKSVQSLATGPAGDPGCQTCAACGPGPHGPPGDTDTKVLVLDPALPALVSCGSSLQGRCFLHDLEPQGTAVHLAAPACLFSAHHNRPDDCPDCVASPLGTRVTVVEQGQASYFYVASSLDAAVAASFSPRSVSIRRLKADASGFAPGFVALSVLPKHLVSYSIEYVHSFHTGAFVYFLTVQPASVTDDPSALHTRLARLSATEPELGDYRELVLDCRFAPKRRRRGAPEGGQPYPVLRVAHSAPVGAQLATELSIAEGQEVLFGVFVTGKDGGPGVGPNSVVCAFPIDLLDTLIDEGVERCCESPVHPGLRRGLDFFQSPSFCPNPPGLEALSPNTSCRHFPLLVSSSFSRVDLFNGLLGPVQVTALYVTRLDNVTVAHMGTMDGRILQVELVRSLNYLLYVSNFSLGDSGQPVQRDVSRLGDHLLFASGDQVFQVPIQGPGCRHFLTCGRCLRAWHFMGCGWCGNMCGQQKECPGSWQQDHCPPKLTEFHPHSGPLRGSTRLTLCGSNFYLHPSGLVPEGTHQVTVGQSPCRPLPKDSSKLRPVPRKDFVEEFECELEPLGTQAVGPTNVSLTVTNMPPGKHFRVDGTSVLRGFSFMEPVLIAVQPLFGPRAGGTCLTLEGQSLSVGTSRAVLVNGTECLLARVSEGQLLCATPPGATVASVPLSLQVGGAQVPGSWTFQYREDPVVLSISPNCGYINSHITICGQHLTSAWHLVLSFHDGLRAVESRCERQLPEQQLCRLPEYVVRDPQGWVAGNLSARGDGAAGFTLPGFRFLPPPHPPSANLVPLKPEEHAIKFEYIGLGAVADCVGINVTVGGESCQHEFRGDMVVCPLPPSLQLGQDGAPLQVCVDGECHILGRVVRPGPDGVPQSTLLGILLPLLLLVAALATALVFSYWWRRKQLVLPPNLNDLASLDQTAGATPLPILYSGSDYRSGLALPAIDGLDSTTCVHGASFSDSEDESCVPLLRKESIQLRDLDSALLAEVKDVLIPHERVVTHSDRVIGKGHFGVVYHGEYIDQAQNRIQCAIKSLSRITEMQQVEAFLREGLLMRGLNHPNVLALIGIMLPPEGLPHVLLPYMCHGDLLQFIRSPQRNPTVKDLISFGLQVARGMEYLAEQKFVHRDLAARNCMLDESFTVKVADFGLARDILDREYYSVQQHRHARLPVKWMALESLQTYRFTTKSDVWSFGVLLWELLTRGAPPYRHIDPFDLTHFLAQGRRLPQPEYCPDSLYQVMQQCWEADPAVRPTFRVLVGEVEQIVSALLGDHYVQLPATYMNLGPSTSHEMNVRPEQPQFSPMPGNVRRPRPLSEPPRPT
Sequence of PRKD3 (human) (O94806 whole entry, looked up): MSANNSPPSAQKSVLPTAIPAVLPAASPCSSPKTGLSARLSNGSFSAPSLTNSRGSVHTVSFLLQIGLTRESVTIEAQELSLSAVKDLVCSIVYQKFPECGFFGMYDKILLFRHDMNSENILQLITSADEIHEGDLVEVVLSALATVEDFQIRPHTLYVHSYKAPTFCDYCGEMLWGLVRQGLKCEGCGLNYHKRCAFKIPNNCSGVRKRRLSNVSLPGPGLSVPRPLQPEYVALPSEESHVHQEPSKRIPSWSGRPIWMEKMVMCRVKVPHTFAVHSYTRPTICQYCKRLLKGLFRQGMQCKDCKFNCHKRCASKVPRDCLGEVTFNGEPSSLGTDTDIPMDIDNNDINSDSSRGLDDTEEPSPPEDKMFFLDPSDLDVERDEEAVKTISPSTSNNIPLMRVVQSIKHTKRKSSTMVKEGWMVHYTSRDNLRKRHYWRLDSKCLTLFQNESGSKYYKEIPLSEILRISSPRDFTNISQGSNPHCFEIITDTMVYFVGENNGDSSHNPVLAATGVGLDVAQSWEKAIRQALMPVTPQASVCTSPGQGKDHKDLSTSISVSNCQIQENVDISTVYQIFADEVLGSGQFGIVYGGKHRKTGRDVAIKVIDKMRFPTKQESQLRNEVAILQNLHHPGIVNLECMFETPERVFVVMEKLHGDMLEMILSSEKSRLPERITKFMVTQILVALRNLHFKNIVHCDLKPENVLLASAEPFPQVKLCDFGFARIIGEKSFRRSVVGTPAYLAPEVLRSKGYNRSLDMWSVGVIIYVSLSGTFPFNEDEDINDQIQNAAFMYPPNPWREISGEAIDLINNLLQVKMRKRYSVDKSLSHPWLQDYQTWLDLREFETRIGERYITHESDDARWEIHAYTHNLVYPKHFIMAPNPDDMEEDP
Sequence of TSSK1B (human) (Q9BXA7 whole entry, looked up): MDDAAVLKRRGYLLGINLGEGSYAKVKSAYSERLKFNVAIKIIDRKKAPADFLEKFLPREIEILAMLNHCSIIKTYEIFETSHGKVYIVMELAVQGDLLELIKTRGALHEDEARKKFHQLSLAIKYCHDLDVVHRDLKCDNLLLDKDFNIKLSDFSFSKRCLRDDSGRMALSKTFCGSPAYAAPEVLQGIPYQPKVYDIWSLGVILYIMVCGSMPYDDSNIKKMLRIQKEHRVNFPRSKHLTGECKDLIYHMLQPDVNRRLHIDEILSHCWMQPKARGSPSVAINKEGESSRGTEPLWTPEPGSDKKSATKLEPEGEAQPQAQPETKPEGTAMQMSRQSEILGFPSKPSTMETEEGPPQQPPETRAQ

Compound `NC(=O)c1cccc(-c2cc(Nc3ccc(OC(F)(F)F)cc3)ncn2)c1` has a residual activity [1] of 105%, a residual activity [2] of 94.5% and a residual activity [3] of 96.3%. The residual activity [4] was 77.4%, the residual activity [5] was 88.6% and the residual activity [6] was 82.2%. For the same compound, the residual activity [7] was 98.1%, the residual activity [8] was 99.1% and the residual activity [9] was 91%. The residual activity [10] was 88.7%, the residual activity [11] was 93.2% and the residual activity [12] was 108%. It also gave a residual activity [13] of 111%, a residual activity [14] of 96% and a residual activity [15] of 96.9%. It also gave a residual activity [16] of 98.5%, a residual activity [17] of 91% and a residual activity [18] of 95.5%. For the same compound, the residual activity [19] was 98.5%, the residual activity [20] was 89.8% and the residual activity [21] was 98.9%. For the same compound, the residual activity [22] was 93.9%, the residual activity [23] was 103% and the residual activity [24] was 121%. For the same compound, the residual activity [25] was 101%, the residual activity [26] was 105% and the residual activity [27] was 103%. For the same compound, the residual activity [28] was 92.5%, the residual activity [29] was 101% and the residual activity [30] was 99.4%. The residual activity [31] was 111%, the residual activity [32] was 97.4% and the residual activity [33] was 98.7%. The residual activity [34] was 81.8%, the residual activity [35] was 97.8% and the residual activity [36] was 115%. The residual activity [37] was 95.4%, the residual activity [38] was 98.4% and the residual activity [39] was 92.1%. It also gave a residual activity [40] of 104%, a residual activity [41] of 96% and a residual activity [42] of 97.9%.

Work on `c1ccc2c(-c3ccncc3)c[nH]c2c1` yielded a residual activity [1] of 96.4%, a residual activity [2] of 117% and a residual activity [3] of 105%. It also gave a residual activity [4] of 97.4%, a residual activity [5] of 103% and a residual activity [6] of 75.2%. For the same compound, the residual activity [7] was 123%, the residual activity [8] was 97.6% and the residual activity [9] was 92.1%. For the same compound, the residual activity [10] was 103%, the residual activity [11] was 90.7% and the residual activity [12] was 90.5%. The residual activity [13] was 103%, the residual activity [14] was 96% and the residual activity [15] was 92.7%. The residual activity [16] was 96.1%, the residual activity [17] was 105% and the residual activity [18] was 96.5%. The residual activity [19] was 119%, the residual activity [20] was 80.8% and the residual activity [21] was 89.3%. For the same compound, the residual activity [22] was 103%, the residual activity [23] was 106% and the residual activity [24] was 91.6%. It also gave a residual activity [25] of 97.4%, a residual activity [26] of 62.3% and a residual activity [27] of 106%. It also gave a residual activity [28] of 103%, a residual activity [29] of 103% and a residual activity [30] of 95.2%. The residual activity [31] was 98.9%, the residual activity [32] was 93.4% and the residual activity [33] was 93%. The residual activity [34] was 110%, the residual activity [35] was 79.2% and the residual activity [36] was 105%. The residual activity [37] was 103%, the residual activity [38] was 90.3% and the residual activity [39] was 97.3%. It also gave a residual activity [40] of 96.7%, a residual activity [41] of 107% and a residual activity [42] of 101%.
